# According to US20140314791A1, “METHODS OF TREATING CANCER” (DANA-FARBER CANCER INSTITUTE, INC., priority 2012, published 2014):
# Tests used:
# [1] = system: Lkb1-wt cells; experiment: IdU pulse-labeling after Dtymk knockdown, Lkb1-wt; format: cell-based, mouse; details: for proportion of cells labeled with IdU: mean
# Experimental: (E) Lkb1-wt and Lkb1-null cells in 6-well plates were transduced with shDtymk-1 or shGFP. Two sets of the cells were plated into multiple chamber slides: one was 2 days and the other was 3 days post transduction. After overnight culturing, the cells were labeled with 100 μM IdU for 20 min then fixed for indirect immunofluorescence staining with anti-BrdU. The data represent mean±SD for 200˜300 cells. Representative merged images of BrdU (red) and DAPI (blue) in the indicated cells are shown (F).
# The lower expression of DTYMK in Lkb1-null cells causes the cells to be in jeopardy of DNA damage. To investigate how further knockdown of Dtymk and the consequent decrease in the dTTP pool could affect DNA metabolism, IdU pulse-labeling in Lkb1-wt and Lkb1-null cells was performed 2.5 and 3.5 days post-transduction with shDtymk-1. […] The representative images of Lkb1-wt and Lkb1-null cells co-stained for IdU and DAPI are shown (FIG. 5F). In addition, an overall lower proportion of labeled Lkb1-null than Lkb1-wt cells (43.1% vs. 57.7%) was observed, which may be related to the lower dNTP levels in Lkb1-null cells.
# [2] = system: Lkb1-null t2, t4, and t5 cells; experiment: dTTP rescue of shDtymk growth phenotype; format: cell-based, mouse; details: without additional dTTP, 3 days
# Experimental: (B) Morphology of Lkb1-null t2, t4, and t5 cells transduced with shGFP or shDtymk-1 and then cultured with or without additional 150 μM dTTP in medium for 3 days.
# Next it was determined whether adding dTTP to the media could rescue cell death after Dtymk knockdown. Three Lkb1-null cell lines were transduced with shGFP or shDtymk-1 and then selectively cultured in puromycin medium in the presence or absence of 150 μM dTTP for 3 days (Taricani et al., 2010). […] Expression of DTYMK in the shDtymk-1 cells was not determined because the remaining cells were too few for RNA and protein extraction (FIG. 4B).
# [3] = system: Lkb1-wt cells; experiment: Array-based viral infection and cell proliferation assay (validation), Lkb1-wt; set-up: species or system mouse; details: 5 days post infection, alamarBlue
# Experimental: (§1) (C) Validation study. Relative viability of Lkb1-wt and Lkb1-null cells infected with 340 individual hairpins for 5 days. Genes of interest are highlighted by the colors indicated.
# (§2) For array-based viral infection and assessment of proliferation, 2.5 μl virus was mixed with 250 cells in 100 μl medium containing 8 μg/ml polybrene per well in 96-well plates. The plates were spun at 2250 rpm/37° C. for 30 min. Immediately after spinning, supernatants were gently aspirated off and 100 μl fresh medium was added to each well of the 96-well plates. After 2 days incubation, medium was gently aspirated off and 100 fresh medium containing 3 μg/ml puromycin was added to each well of the 96-well plates. The plates were back to culture for additional 3 days and then the viable cells were monitored by alamarBlue (Invitrogen) assay according to manufacturer's instructions.
# (§3) To identify Lkb1-null-selective essential genes, a synthetic lethal screen was performed using a pooled 40K murine shRNA lentiviral library for each of the Lkb1-wt and Lkb1-null cell lines described above. Relative abundance of shRNAs in each cell line sample was determined by deep-sequencing analysis, and for every shRNA, a log 2 Fold Change (log 2FC) value was calculated from the difference in relative abundance at a late time point after infection versus the initial shRNA-infected sample. An unsupervised hierarchical clustering analysis of the ranked hairpins from the triplicate pooled shRNA library screens of Lkb1-wt and Lkb1-null mouse cancer cells is shown in FIG. 1A. […] The ranked hairpins were collapsed by using two methods, a RIGER analysis (KS t-test based statistics) and a weighted second best analysis to rank genes that selectively impaired proliferation/viability in Lkb1-null cells. A union of 344 genes, identified by the top 100 individual hairpins for 88 genes (Table 1) and the top 200 genes from both the KS (Table 2) and weighted second best (Table 3), was nominated as the initial prioritized list (FIG. 1B). 340 shRNAs, targeting 70 candidate genes from this prioritized list, were chosen for validation (Table 4). The 70 genes consisted of the top 10 candidates from the KS analysis, as well as 60 others involved in a range of biological processes in an attempt to represent all biological categories in the validation process. Validation was performed in an array format with an assay of relatively short duration (5 days post infection) compared to the primary pooled screen (28 days), which should be a more stringent selection, as it required the anti-proliferative effects to manifest in a short time period. […] Dtymk, Check1, and Pdhb are the top 3 candidate genes, each with 3 hairpins that scored in the validation assay (FIG. 1C).
# [4] = system: Lkb1-null cells; experiment: Array-based viral infection and cell proliferation assay (validation), Lkb1-null; set-up: species or system mouse
# Experimental: as §1, §2, §3
# [5] = system: Dtymk; experiment: QPCR analysis of Dtymk knockdown in Lkb1-wt 634 cells; details: normalized to shGFP
# [6] = system: Lkb1-null versus Lkb1-wt cell lines; experiment: Large-scale pooled shRNA library screening (murine 40K pool); format: cell-based, mouse
substance,measurement,setting,value
shDtymk-1: shRNA hairpin CAAGCTTCTGAATTCCTACTT targeting Mouse Dtymk,proportion of cells labeled with IdU,[1]; day 2.5 post infection,46.3%
same,proportion of cells labeled with IdU,[1]; day 3.5 post infection,22.3%
same,drop of proportion of IdU-labeled cells,[1]; in 3.5 days,61.2%
same,growth of shDtymk-transduced Lkb1-null cells,[2],grew poorly
same,WT ave-GR,[3],0.53
same,Growth of Lkb1-wt/Lkb1-null in array-based validation,[4]; Table 6,4.16
same,Null ave-GR,"[4]; validation, 5 days post infection, alamarBlue",0.13
same,mRNA remaining (by qPCR),[5],20.00%
same,Hairpin-rank in pooled shRNA screen,[6]; Table 6,27050
same,NES,[6]; gene-level normalized enrichment score over all hairpins of the gene,1.540
same,Gene rank,[6]; gene-level rank by NES,91
same,# HP 500,[6]; number of the gene's hairpins ranked within top 500,1
same,# HP 1000,[6]; number of the gene's hairpins ranked within top 1000,1
same,# HP 5000,[6]; number of the gene's hairpins ranked within top 5000,1
same,# HP 10000,[6]; number of the gene's hairpins ranked within top 10000,2
